We go through one compound from patent publication US9782522B2, “Compositions and methods for treating and preventing neointimal stenosis” (Yale University, priority 2011, dated 2017).

One assay has as its system TEVG stenosis. As to the kind of experiment: Tissue-engineered vascular graft (TEVG) stenosis model. It counts as in vivo, mice. From the text:
Scaffolds were constructed from a nonwoven polyglycolic acid (PGA) mesh (Concordia Fibers) and a co-polymer sealant solution of poly-L-lactide and -ε-caprolactone (P(CL/LA)) as previously described (Roh J D, et al. Biomaterials. 29(10):1454 (2008)). For scaffold seeding studies, bone marrow was collected from the femurs of syngeneic C57BL/6 mice. Following purification of the mononuclear cell component using Histopaque-1086 (Sigma) centrifugation, one million mononuclear cells were manually pipetted onto the scaffold. The seeded scaffold was incubated in RPMI 1640 Medium (Gibco) overnight prior to implantation as previously described (Roh J D, et al. Biomaterials. 29(10):1454 (2008)).
sFGFR1-IIIc adenovirus was previously described (Murakami M, et al. J Clin Invest. 118(10):3355 (2008)) at a dose of 5×10^10 viral particles per mouse 1 week prior to TEVG implantation by tail vein injection. Control mice were given equivalent volumes of sterile PBS. Serum level of sFGFR1-IIIc was measured by a Human IgG Subclass Profile kit (Invitrogen).
Mice treated with TGFβRI kinase inhibitor were treated with SB431542 hydrate (Sigma) in DMSO given by intraperitoneal injection twice a day from post-operative day 0 to post-operative day 14 at a dose of 10 mg/kg. Control mice were treated with equivalent volumes of sterile DMSO.
Explanted grafts were pressure fixed in 10% formalin overnight and then embedded in paraffin or glycolmethacrylate using previously published methods (Roh J D, et al. Proc Natl Acad Sci USA. 107(10):4669 (2010)). Sections were stained with H&E or Gomori Trichrome. Graft luminal diameters were measured using ImageJ software. Stenosis was defined as greater than 50% decrease in luminal diameter. Critical stenosis was defined as 80% narrowing of the luminal diameter. Graft occlusion was defined as 100% narrowing of the luminal diameter. For EM studies scaffolds were cut into 0.5 mm thick cross-sections and imaged on a […] scanning electron microscope (Hillsboro) as previously described (Roh J D, et al. Biomaterials. 29(10):1454 (2008)). TGFβ positive cell area was measured using ImageJ software. Two separate sections of each explant were counterstained with hematoxalin and imaged at 400× magnification. The number of nuclei was then counted in five regions of each section and averaged. LacZ/SMA colocalized cells were quantified in the same manner using double immunofluorescent staining imaged under 60× confocal magnification.

The test system of another assay is ALK-1, -2, -3, and -6. Conditions: cited from earlier work.
Setting [1] is: Tie2-CreXRosa26 mice, 10 mg/kg twice daily intraperitoneal for 2 weeks, vs DMSO.

Each structure is given as a SMILES string.

For `NC(=O)c1ccc(-c2nc(-c3ccc4c(c3)OCO4)c(-c3ccccn3)[nH]2)cc1` [SB431542, 4-[4-(1,3-Benzodioxol-5-yl)-5-(2-pyridinyl)-1H-imidazol-2-yl]-benzamide], in the assay with TEVG stenosis (setting [1]), the TEVG luminal diameter result is reported as “significantly increases” and the graft patency entry is reported as “significantly increases”. Moreover, in the assay on TEVG stenosis (Tie2 lineage-tracing mice, drug treated), the “LacZ-positive smooth muscle cells in occluded grafts” value was “significant reduction”. Besides, the Patency result in the assay on TEVG stenosis (local drug delivery (drug in microparticles, drug in solvent), 2 weeks, unseeded grafts, mouse model) is recorded as “significantly increases”. In the assay with TEVG stenosis (local drug delivery, unseeded grafts, mouse model), the neotissue creation entry is listed as “enabled neotissue creation”. For the same compound, in the assay with TEVG stenosis (systemic treatment, 10 mg/kg twice daily intraperitoneal), the “neotissue creation (CD31 positive endothelial layer lining SMA positive smooth muscle layer)” value is listed as “proper neotissue creation”. Further, the “Effect on ALK-1, -2, -3, and -6 and hence BMP signaling” value with ALK-1, -2, -3, and -6 is listed as “without effect”.
